# Measured values: patent publication US6410740B1, “Heterocyclylmethyl-substituted pyrazol derivatives” (Bayer Aktiengesellschaft, priority 1996, dated 2002)
# Read-outs that look alike come from different tables or passages of the source.
# Tests used:
# [1] = system: rabbit aortic rings precontracted with phenylephrine; assay: Vessel-relaxing action in vitro on isolated aortic rings precontracted with phenylephrine; conditions: Oryctolagus cuniculus, rabbit aorta rings, phenylephrine contraction
# Procedure: Vessel-relaxing Action in vitro
# Rings 1.5 mm wide of an aorta isolated from a rabbit are introduced individually, under pretension, in 5 ml organ baths with Krebs-Henseleit solution warmed to 37° C. and gassed with carbogen. The contraction force is amplified and digitalized and recorded in parallel on a line recorder. To generate a contraction, phenylephrine is added cumulatively to the bath in an increasing concentration.
# (§1) After several control cycles, the substance to be investigated is investigated in each further pass in each case in an increasing dosage, and a comparison is made with the level of the contraction achieved in the last preliminary pass. The concentration necessary to reduce the level of the control value by 50% (IC50) is calculated from this. The standard application volume is 5 μl.
# as §1, with “this.” for “this. The standard application volume is 5 μl.”
# The standard application volume is 5 μl.
# [2] = molecular target: T1, soluble guanylate cyclase (Sus scrofa, UniProt A0A4X1U7N1+A0ACM8Q7I6); assay: Stimulation of soluble guanylate cyclase in primary endothelial cells (intracellular cGMP, radioimmunological); assay type: cell-based; conditions: 10 min, test substance 1 μM, 10-minute incubation, primary pig aortic endothelial cells, with or without SNP 1 μM (not stated which), read-out: % increase in cGMP
# T1 construct: endogenous in cells; host or cells: primary endothelial cells from pig aorta
# T1 sequence (A0A4X1U7N1 1-619): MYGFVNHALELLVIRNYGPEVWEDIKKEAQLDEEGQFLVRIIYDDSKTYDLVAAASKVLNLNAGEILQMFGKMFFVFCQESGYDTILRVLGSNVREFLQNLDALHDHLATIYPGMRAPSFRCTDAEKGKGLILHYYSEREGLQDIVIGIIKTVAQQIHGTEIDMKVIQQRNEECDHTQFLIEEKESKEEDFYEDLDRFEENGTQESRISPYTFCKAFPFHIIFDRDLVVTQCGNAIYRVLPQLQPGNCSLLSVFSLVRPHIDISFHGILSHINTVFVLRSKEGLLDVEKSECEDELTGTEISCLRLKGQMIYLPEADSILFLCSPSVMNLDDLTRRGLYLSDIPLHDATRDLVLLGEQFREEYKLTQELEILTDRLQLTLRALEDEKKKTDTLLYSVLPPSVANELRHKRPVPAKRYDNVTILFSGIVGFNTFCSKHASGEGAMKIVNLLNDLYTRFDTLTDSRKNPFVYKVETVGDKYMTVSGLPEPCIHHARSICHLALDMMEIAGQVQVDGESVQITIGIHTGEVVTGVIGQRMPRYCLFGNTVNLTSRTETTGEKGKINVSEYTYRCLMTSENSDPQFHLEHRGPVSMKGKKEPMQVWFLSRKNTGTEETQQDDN
# T1 sequence (A0ACM8Q7I6 1-688): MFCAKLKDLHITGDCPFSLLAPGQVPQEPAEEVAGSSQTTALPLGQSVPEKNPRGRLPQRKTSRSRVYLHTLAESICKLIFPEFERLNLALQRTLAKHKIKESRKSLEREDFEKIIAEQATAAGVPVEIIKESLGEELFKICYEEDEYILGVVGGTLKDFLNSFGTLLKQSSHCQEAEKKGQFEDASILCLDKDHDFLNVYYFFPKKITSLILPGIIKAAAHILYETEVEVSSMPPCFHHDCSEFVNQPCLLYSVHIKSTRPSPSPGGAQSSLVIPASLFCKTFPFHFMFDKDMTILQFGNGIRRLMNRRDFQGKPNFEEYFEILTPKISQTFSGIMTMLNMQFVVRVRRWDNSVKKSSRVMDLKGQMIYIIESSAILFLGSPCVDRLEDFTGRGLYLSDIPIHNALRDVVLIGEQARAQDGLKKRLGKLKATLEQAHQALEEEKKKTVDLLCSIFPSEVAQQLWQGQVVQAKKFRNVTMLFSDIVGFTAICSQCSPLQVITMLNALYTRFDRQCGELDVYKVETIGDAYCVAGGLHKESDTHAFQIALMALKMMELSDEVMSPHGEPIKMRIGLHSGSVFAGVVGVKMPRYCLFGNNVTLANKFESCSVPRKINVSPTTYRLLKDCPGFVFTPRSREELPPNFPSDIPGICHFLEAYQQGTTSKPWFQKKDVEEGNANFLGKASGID
# Procedure: Stimulation of Soluble Guanylate Cyclase in Primary Endothelial Cells
# (§2) Primary endothelial cells were isolated from pig aortas by treatment with collagenase solution. The cells were then cultured in a culture medium until confluence was reached. For the investigations, the cells were subjected to passaging, sown in cell culture plates and subcultured until confluence was reached. To stimulate the endothelial guanylate cyclase, the culture medium was suctioned off and the cells were washed once with Ringer's solution and incubated in stimulation buffer with or without an NO donor (sodium nitroprusside, SNP, 1 μM). Thereafter, the test substances (final concentration 1 μM) were pipetted onto the cells. At the end of the 10-minute incubation period, the buffered solution was suctioned off and the cells were lysed at −20° C. for 16 hours. The intracellular cGMP was then determined radioimmunologically.
# as §2, with “sucked” for “suctioned”
# as §2, with “without” for “without an”, “buffer” for “buffered”
# [3] = system: human platelets stimulated with collagen; assay: Inhibition of platelet aggregation in vitro (collagen-induced, platelet-rich plasma); assay type: cell-based; conditions: human PRP, 37° C.
# Procedure: Inhibition of Platelet Aggregation in vitro
# To determine the platelet aggregation-inhibiting action, blood from healthy subjects of both sexes was used. One part of 3.8% strength aqueous sodium citrate solution was admixed to 9 parts of blood as an anticoagulant. Platelet-richer citrate plasma (PRP) is obtained from this blood by means of centrifugation.
# (§3) For the investigations, 445 μl of PRP and 5 μl of the active compound solution were preincubated in a water-bath at 37° C. The platelet aggregation was then determined in an aggregometer at 37° C. using the turbidometric method. For this, 50 μl of collagen, an aggregation-inducing agent, were added to the preincubated sample and the change in optical density was recorded. For the quantitative evaluation, the maximum aggregation response was determined and the percentage inhibition compared with the control was calculated therefrom.
# Inhibition of Platelet Pggregation in vitro
# as §3, with “For these investigations, 445” for “For the investigations, 445”
"IC50 ([1]; iv, embodiment IV) [µM]",activation at 1 µM ([2]; embodiment IV) [%],SMILES,other results
–,–,OCc1cccc(-c2nn(Cc3ccccc3F)c3ccccc23)n1 [II-62],IC50 ([1]; embodiment II): 13 µM; melting point: 99 °C
–,–,"OCc1cnc(-c2nn(Cc3ccccc3)c3ccccc23)o1 [III-71, 1-Benzyl-3-(5-hydroxymethyl-oxazol-2-yl)-indazole]",IC50 ([1]; embodiment III): 5 µM; activation at 1 µM ([2]; embodiment III): 315%; IC50 ([3]; embodiment III): 50 µg/mL
–,–,"CCOC(=O)c1csc(-c2nn(Cc3ccccc3)c3ccccc23)n1 [III-72, Ethyl 2-(1-benzyl-indazol-3-yl)-thiazole-4-carboxylate]",IC50 ([3]; embodiment III): 1 µg/mL
7.2,> 1000,"N#Cc1ccccc1Cn1nc(-c2ccc(CO)o2)c2ccccc21 [IV-136, 1-(^2-Cyanobenzyl)-3-(5-hydroxymethylfuran-2-yl)-indazole]",IC50 ([3]; embodiment IV): 30 µg/mL
12,289,OCc1coc(-c2nn(Cc3ccccc3)c3ccccc23)c1 [IV-164],–
29,256,OCc1ccc(-c2nn(Cc3c(F)cccc3F)c3ccccc23)o1 [IV-165],–
11,921,Cc1cc(-c2nn(Cc3ccccc3)c3ccccc23)oc1CO [IV-179],–
–,–,"Cc1nc(-c2nn(Cc3ccccc3F)c3ccccc23)oc1CN1C(=O)c2ccccc2C1=O [Process Example 11, 2-[1-(2-fluorobenzyl)-indazole-3-yl]-4-methyl-5-(N-phthalimidomethyl)-oxazole]",melting point: 175 to 177 °C
